Experiments:
[1] = xn = mol fraction of the nth substance listed; conditions: 101 kPa, Liquid; for viscosity: Capillary tube (Ostwald / Ubbelohde) method; for mass density: Vibrating tube method
[2] = refractive index (Na D-line) (dimensionless); xn = mol fraction of the nth substance listed; conditions: 101 kPa, Liquid, Standard Abbe refractometry

CCC(C)(C)O [2-methylbutan-2-ol] + C1CCOC1
Conditions | mass density, 288.15 K [kg/m3] | mass density, 298.15 K [kg/m3] | mass density, 308.15 K [kg/m3] | refractive index, 288.15 K | refractive index, 298.15 K | refractive index, 308.15 K | viscosity, 288.15 K [mPa·s] | viscosity, 298.15 K [mPa·s] | viscosity, 308.15 K [mPa·s]
[1], x1 = 0.1028 | 881.2 | 870.63 | 859.92 | – | – | – | 0.7142 | 0.5079 | 0.4359
[1], x1 = 0.1791 | 873.29 | 862.93 | 852.42 | – | – | – | 0.895 | 0.5724 | 0.4592
[1], x1 = 0.2676 | 865.01 | 854.87 | 844.57 | – | – | – | 1.13 | 0.6232 | 0.5449
[1], x1 = 0.3601 | 857.15 | 847.22 | 837.11 | – | – | – | 1.365 | 0.7532 | 0.6428
[1], x1 = 0.45 | 850.2 | 840.46 | 830.51 | – | – | – | 1.63 | 0.8859 | 0.747
[1], x1 = 0.5402 | 843.79 | 834.19 | 824.37 | – | – | – | 1.968 | 1.064 | 0.8887
[1], x1 = 0.6295 | 837.94 | 828.48 | 818.76 | – | – | – | 2.399 | 1.288 | 1.055
[1], x1 = 0.7058 | 833.16 | 823.78 | 814.12 | – | – | – | 2.849 | 1.548 | 1.232
[1], x1 = 0.8097 | 826.96 | 817.62 | 808.01 | – | – | – | 3.623 | 2.008 | 1.548
[1], x1 = 0.8903 | 821.89 | 812.56 | 802.98 | – | – | – | 4.381 | 2.517 | 1.907
[1], x1 = 0.9629 | 816.9 | 807.57 | 798.22 | – | – | – | 5.245 | 3.052 | 2.234
[1], x1 = 1 | 814.01 | 804.88 | 795.52 | – | – | – | 5.867 | 3.478 | 2.504
[2], x1 = 0.1028 | – | – | – | 1.4076 | 1.4027 | 1.3979 | – | – | –
[2], x1 = 0.1791 | – | – | – | 1.4069 | 1.4022 | 1.3974 | – | – | –
[2], x1 = 0.2676 | – | – | – | 1.4065 | 1.4018 | 1.3972 | – | – | –
[2], x1 = 0.3601 | – | – | – | 1.4064 | 1.4018 | 1.3971 | – | – | –
[2], x1 = 0.45 | – | – | – | 1.4066 | 1.402 | 1.3972 | – | – | –
[2], x1 = 0.5402 | – | – | – | 1.4068 | 1.4022 | 1.3974 | – | – | –
[2], x1 = 0.6295 | – | – | – | 1.407 | 1.4023 | 1.3976 | – | – | –
[2], x1 = 0.7058 | – | – | – | 1.4071 | 1.4024 | 1.3977 | – | – | –
[2], x1 = 0.8097 | – | – | – | 1.4071 | 1.4024 | 1.3977 | – | – | –
[2], x1 = 0.8903 | – | – | – | 1.4069 | 1.4022 | 1.3975 | – | – | –
[2], x1 = 0.9629 | – | – | – | 1.4065 | 1.4018 | 1.3972 | – | – | –
[2], x1 = 1 | – | – | – | 1.4062 | 1.4015 | 1.3968 | – | – | –

Reference: the NIST ThermoML archive (doi:10.1016/j.jct.2010.05.009)
